# In US8952024B2, “Herbicidal pyrimidone derivatives” (E I du Pont de Nemours and Company, priority 2009, dated 2015):
# Columns and labels:
# Experiment in all cases: Test B pre-/postemergence plant response
# Format in all cases: in vivo
# [1] = system: Italian ryegrass (Lolium multiflorum); conditions: Postemergence
# In short: (§1)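 Each species received compound formulated in non-phytotoxic solvent with surfactant, either at planting into a loam and sand blend or as a foliar spray once plants reached 2 to 18 cm in peat-based medium. Plants stayed in the greenhouse 13 to 15 days before visual evaluation against controls, scored 0 (no effect) to 100 (complete control).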
# [2] = system: Surinam grass (Brachiaria decumbens); conditions: Postemergence
# In short: as §1
# [3] = system: bermudagrass (Cynodon dactylon); conditions: for Bermudagrass plant response rating (0 to 100 scale): 62 g ai/ha, postemergence, 0 is no effect, 100 is complete control; for Plant response rating, Bermudagrass: Postemergence
# In short: as §1
# [4] = system: blackgrass (Alopecurus myosuroides); conditions: for Blackgrass plant response rating (0 to 100 scale): 62 g ai/ha, postemergence, 0 is no effect, 100 is complete control; for Plant response rating, Blackgrass: Postemergence
# In short: as §1
# corn (Zea mays) = conditions: Postemergence
# In short: as §1
# [5] = system: downy bromegrass (Bromus tectorum); conditions: for Bromegrass, Downy plant response rating (0 to 100 scale): 62 g ai/ha, postemergence, 0 is no effect, 100 is complete control; for Plant response rating, Bromegrass, Downy: Postemergence
# In short: as §1
# [6] = system: giant foxtail (Setaria faberii); conditions: Postemergence
# In short: as §1
# [7] = system: green foxtail (Setaria viridis); conditions: Postemergence
# In short: as §1
# [8] = system: lambsquarters (Chenopodium album); conditions: Postemergence
# In short: as §1
# [9] = system: large crabgrass (Digitaria sanguinalis); conditions: Postemergence
# In short: as §1
# [10] = system: morningglory (Ipomoea coccinea); conditions: Postemergence
# In short: as §1
# [11] = system: woolly cupgrass (Eriochloa villosa); conditions: Postemergence
# In short: as §1
# [12] = system: yellow nutsedge (Cyperus esculentus); conditions: Postemergence
# In short: as §1
# [13] = 31 g ai/ha, 0 to 100 scale (0 no effect, 100 complete control)
# [14] = 125 g ai/ha, scale 0 to 100 (0 no effect, 100 complete control)
# [15] = 250 g ai/ha, scale 0 to 100 (0 no effect, 100 complete control), 13 to 15 days
smiles,measurement,setting,value
O=C1CCCC(O)=C1C(=O)c1cnc(-c2cc(F)cc(F)c2)n(C2CCCCC2)c1=O [Compound 181],"Plant response rating, Ryegrass, Italian",[1]; [13],10
same,"Plant response rating, Ryegrass, Italian",[1]; [14],60
same,"Plant response rating, Ryegrass, Italian",[1]; [15],65
same,"Plant response rating, Surinam Grass",[2]; [13],70
same,"Plant response rating, Surinam Grass",[2]; [14],95
same,"Plant response rating, Surinam Grass",[2]; [15],100
same,Bermudagrass plant response rating (0 to 100 scale),[3]; 13 to 15 days,100
same,"Plant response rating, Bermudagrass",[3]; [13],100
same,"Plant response rating, Bermudagrass",[3]; [14],100
same,"Plant response rating, Bermudagrass",[3]; [15],100
same,Blackgrass plant response rating (0 to 100 scale),[4]; 13 to 15 days,5
same,"Plant response rating, Blackgrass",[4]; [13],0
same,"Plant response rating, Blackgrass",[4]; [14],15
same,"Plant response rating, Blackgrass",[4]; [15],15
same,"Plant response rating, Corn",corn (Zea mays); [13],70
same,"Plant response rating, Corn",corn (Zea mays); [14],95
same,"Plant response rating, Corn",corn (Zea mays); [15],95
same,"Bromegrass, Downy plant response rating (0 to 100 scale)",[5]; 13 to 15 days,50
same,"Plant response rating, Bromegrass, Downy",[5]; [13],40
same,"Plant response rating, Bromegrass, Downy",[5]; [14],60
same,"Plant response rating, Bromegrass, Downy",[5]; [15],85
same,"Plant response rating, Foxtail, Giant",[6]; [13],98
same,"Plant response rating, Foxtail, Giant",[6]; [14],100
same,"Plant response rating, Foxtail, Giant",[6]; [15],100
same,"Plant response rating, Foxtail, Green",[7]; [13],70
same,"Plant response rating, Foxtail, Green",[7]; [14],95
same,"Plant response rating, Foxtail, Green",[7]; [15],98
same,"Plant response rating, Lambsquarters",[8]; [13],100
same,"Plant response rating, Lambsquarters",[8]; [14],100
same,"Plant response rating, Lambsquarters",[8]; [15],100
same,"Plant response rating, Crabgrass, Large",[9]; [13],98
same,"Plant response rating, Crabgrass, Large",[9]; [14],100
same,"Plant response rating, Crabgrass, Large",[9]; [15],100
same,"Plant response rating, Morningglory",[10]; [13],95
same,"Plant response rating, Morningglory",[10]; [14],100
same,"Plant response rating, Morningglory",[10]; [15],100
same,"Plant response rating, Cupgrass, Woolly",[11]; [13],80
same,"Plant response rating, Cupgrass, Woolly",[11]; [14],100
same,"Plant response rating, Cupgrass, Woolly",[11]; [15],100
same,"Plant response rating, Nutsedge, Yellow",[12]; [13],60
same,"Plant response rating, Nutsedge, Yellow",[12]; [14],80
same,"Plant response rating, Nutsedge, Yellow",[12]; [15],85
Cc1ccc(Cl)cc1-n1c(-c2cccc(F)c2)ncc(C(=O)C2=C(O)CCCC2=O)c1=O [Compound 184],"Plant response rating, Ryegrass, Italian",[1]; [13],20
same,"Plant response rating, Ryegrass, Italian",[1]; [14],45
same,"Plant response rating, Ryegrass, Italian",[1]; [15],60
same,"Plant response rating, Surinam Grass",[2]; [13],80
same,"Plant response rating, Surinam Grass",[2]; [14],100
same,"Plant response rating, Surinam Grass",[2]; [15],100
same,Bermudagrass plant response rating (0 to 100 scale),[3]; 13 to 15 days,100
same,"Plant response rating, Bermudagrass",[3]; [13],98
same,"Plant response rating, Bermudagrass",[3]; [14],100
same,"Plant response rating, Bermudagrass",[3]; [15],100
same,Blackgrass plant response rating (0 to 100 scale),[4]; 13 to 15 days,35
same,"Plant response rating, Blackgrass",[4]; [13],30
same,"Plant response rating, Blackgrass",[4]; [14],40
same,"Plant response rating, Blackgrass",[4]; [15],50
same,"Plant response rating, Corn",corn (Zea mays); [13],80
same,"Plant response rating, Corn",corn (Zea mays); [14],85
same,"Plant response rating, Corn",corn (Zea mays); [15],98
same,"Bromegrass, Downy plant response rating (0 to 100 scale)",[5]; 13 to 15 days,50
same,"Plant response rating, Bromegrass, Downy",[5]; [13],40
same,"Plant response rating, Bromegrass, Downy",[5]; [14],50
same,"Plant response rating, Bromegrass, Downy",[5]; [15],60
same,"Plant response rating, Foxtail, Giant",[6]; [13],98
same,"Plant response rating, Foxtail, Giant",[6]; [14],100
same,"Plant response rating, Foxtail, Giant",[6]; [15],100
same,"Plant response rating, Foxtail, Green",[7]; [13],30
same,"Plant response rating, Foxtail, Green",[7]; [14],85
same,"Plant response rating, Foxtail, Green",[7]; [15],98
same,"Plant response rating, Lambsquarters",[8]; [13],80
same,"Plant response rating, Lambsquarters",[8]; [14],100
same,"Plant response rating, Lambsquarters",[8]; [15],100
same,"Plant response rating, Crabgrass, Large",[9]; [13],100
same,"Plant response rating, Crabgrass, Large",[9]; [14],100
same,"Plant response rating, Crabgrass, Large",[9]; [15],100
same,"Plant response rating, Morningglory",[10]; [13],40
same,"Plant response rating, Morningglory",[10]; [14],100
same,"Plant response rating, Morningglory",[10]; [15],100
same,"Plant response rating, Cupgrass, Woolly",[11]; [13],75
same,"Plant response rating, Cupgrass, Woolly",[11]; [14],100
same,"Plant response rating, Cupgrass, Woolly",[11]; [15],100
same,"Plant response rating, Nutsedge, Yellow",[12]; [13],35
same,"Plant response rating, Nutsedge, Yellow",[12]; [14],45
same,"Plant response rating, Nutsedge, Yellow",[12]; [15],75
O=C1CCCC(O)=C1C(=O)c1cnc(-c2cccc(F)c2)n(C2CCCCC2)c1=O [Compound 187],"Plant response rating, Ryegrass, Italian",[1]; [13],0
same,"Plant response rating, Ryegrass, Italian",[1]; [14],10
same,"Plant response rating, Ryegrass, Italian",[1]; [15],30
same,"Plant response rating, Surinam Grass",[2]; [13],65
same,Bermudagrass plant response rating (0 to 100 scale),[3]; 13 to 15 days,85
same,"Plant response rating, Bermudagrass",[3]; [13],75
same,"Plant response rating, Bermudagrass",[3]; [14],100
same,"Plant response rating, Bermudagrass",[3]; [15],100
same,Blackgrass plant response rating (0 to 100 scale),[4]; 13 to 15 days,0
same,"Plant response rating, Blackgrass",[4]; [13],0
same,"Plant response rating, Blackgrass",[4]; [14],5
same,"Plant response rating, Blackgrass",[4]; [15],5
same,"Plant response rating, Corn",corn (Zea mays); [13],50
same,"Plant response rating, Corn",corn (Zea mays); [14],75
same,"Plant response rating, Corn",corn (Zea mays); [15],80
same,"Bromegrass, Downy plant response rating (0 to 100 scale)",[5]; 13 to 15 days,30
same,"Plant response rating, Bromegrass, Downy",[5]; [13],5
same,"Plant response rating, Bromegrass, Downy",[5]; [14],35
same,"Plant response rating, Bromegrass, Downy",[5]; [15],40
same,"Plant response rating, Foxtail, Giant",[6]; [13],98
same,"Plant response rating, Foxtail, Giant",[6]; [14],100
same,"Plant response rating, Foxtail, Giant",[6]; [15],100
same,"Plant response rating, Foxtail, Green",[7]; [13],65
same,"Plant response rating, Foxtail, Green",[7]; [14],98
same,"Plant response rating, Foxtail, Green",[7]; [15],98
same,"Plant response rating, Lambsquarters",[8]; [13],98
same,"Plant response rating, Lambsquarters",[8]; [14],100
same,"Plant response rating, Lambsquarters",[8]; [15],100
same,"Plant response rating, Crabgrass, Large",[9]; [13],85
same,"Plant response rating, Crabgrass, Large",[9]; [14],100
same,"Plant response rating, Crabgrass, Large",[9]; [15],100
same,"Plant response rating, Morningglory",[10]; [13],80
same,"Plant response rating, Morningglory",[10]; [14],100
same,"Plant response rating, Morningglory",[10]; [15],100
same,"Plant response rating, Cupgrass, Woolly",[11]; [13],80
same,"Plant response rating, Cupgrass, Woolly",[11]; [14],85
same,"Plant response rating, Cupgrass, Woolly",[11]; [15],95
same,"Plant response rating, Nutsedge, Yellow",[12]; [13],45
same,"Plant response rating, Nutsedge, Yellow",[12]; [14],65
same,"Plant response rating, Nutsedge, Yellow",[12]; [15],75
